# pIC50: −log10 of the molar value.
# Biological target: SHP2 (Homo sapiens (Human), UniProt Q06124)
# Assay: SHP2 allosteric inhibition assay (DiFMUP prompt fluorescence)
# Type: biochemical
# Details: 0.5 nM SHP2 activated with 0.5 μM peptide IRS1_pY1172(dPEG8)pY1222; substrate DiFMUP; 25° C.
# Chain of SHP2 (Q06124 whole entry): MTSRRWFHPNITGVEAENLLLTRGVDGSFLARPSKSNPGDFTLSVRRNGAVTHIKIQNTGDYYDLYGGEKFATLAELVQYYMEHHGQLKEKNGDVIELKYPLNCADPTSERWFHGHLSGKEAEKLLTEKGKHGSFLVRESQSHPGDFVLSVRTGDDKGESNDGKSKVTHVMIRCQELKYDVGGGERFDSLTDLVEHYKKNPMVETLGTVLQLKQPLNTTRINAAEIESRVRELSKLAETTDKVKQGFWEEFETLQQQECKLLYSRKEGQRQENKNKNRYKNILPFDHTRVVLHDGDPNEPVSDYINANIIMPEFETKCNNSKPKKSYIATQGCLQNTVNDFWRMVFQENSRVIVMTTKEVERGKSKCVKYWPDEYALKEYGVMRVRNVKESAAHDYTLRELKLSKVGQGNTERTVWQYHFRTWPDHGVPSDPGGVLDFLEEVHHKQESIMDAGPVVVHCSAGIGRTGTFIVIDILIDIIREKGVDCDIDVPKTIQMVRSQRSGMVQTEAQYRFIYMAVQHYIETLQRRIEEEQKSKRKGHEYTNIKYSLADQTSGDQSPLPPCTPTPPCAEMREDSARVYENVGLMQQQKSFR
row,Structure (SMILES),pIC50
1,"Cc1nc(N2CCC3(CC2)CO[C@@H](C)[C@H]3N)n(C)c(=O)c1Sc1ccnc(N)c1Cl [Example 121, 5-((2-amino-3-chloropyridin-4-yl)thio)-2-((3S,4S)-4-amino-3-methyl-2-oxa-8-azaspiro[4.5]decan-8-yl)-3,6-dimethylpyrimidin-4(3H)-one]",7.22
2,Cc1nc(N2CCC3(CC2)CO[C@@H](C)[C@H]3N)n(C)c(=O)c1Sc1cccnc1C(F)(F)F [Example 122],7.17
3,"Cc1ccc(-c2c(N)nc(N3CCC4(CC3)CO[C@@H](C)[C@H]4N)n(C)c2=O)cc1Cl [Example 123, 6-amino-2-((3S,4S)-4-amino-3-methyl-2-oxa-8-azaspiro[4.5]decan-8-yl)-5-(3-chloro-4-methylphenyl)-3-methylpyrimidin-4(3H)-one]",7.85
4,Cc1ccc(-c2c(N)nc(N3CCC4(CC3)C[C@@H](C)C[C@H]4N)n(C)c2=O)cc1Cl [Example 124],8.00
5,C[C@H]1C[C@@H](N)C2(CCN(c3nc(N)c(-c4cccc(Cl)c4)c(=O)n3C)CC2)C1 [Example 125],7.92
6,C[C@H]1C[C@@H](N)C2(CCN(c3nc(N)c(-c4cccc(F)c4F)c(=O)n3C)CC2)C1 [Example 126],7.92
7,C[C@H]1C[C@@H](N)C2(CCN(c3nc(N)c(-c4ccc(F)c(F)c4)c(=O)n3C)CC2)C1 [Example 127],7.85
8,C[C@H]1C[C@@H](N)C2(CCN(c3nc(N)c(-c4cccc(Cl)c4Cl)c(=O)n3C)CC2)C1 [Example 129],7.85
9,C[C@@H]1OCC2(CCN(c3nc(N)c(-c4ccc(SC(F)(F)F)cc4)c(=O)n3C)CC2)[C@@H]1N [Example 130],7.85
10,CC(C)c1ccc(-c2c(N)nc(N3CCC4(CC3)CO[C@@H](C)[C@H]4N)n(C)c2=O)cc1 [Example 131],7.80
11,C[C@@H]1OCC2(CCN(c3nc(N)c(-c4cccc(Cl)c4Cl)c(=O)n3C)CC2)[C@@H]1N [Example 132],7.80
12,C[C@@H]1OCC2(CCN(c3nc(N)c(-c4ccc(F)c(F)c4)c(=O)n3C)CC2)[C@@H]1N [Example 133],7.77
13,C[C@H]1C[C@@H](N)C2(CCN(c3nc(N)c(-c4ccc(SC(F)(F)F)cc4)c(=O)n3C)CC2)C1 [Example 134],7.72
14,C[C@@H]1OCC2(CCN(c3nc(N)c(-c4cccc(Cl)c4)c(=O)n3C)CC2)[C@@H]1N [Example 135],7.72
15,C[C@@H]1OCC2(CCN(c3nc(N)c(-c4ccc(Cl)cc4)c(=O)n3C)CC2)[C@@H]1N [Example 136],7.70
16,Cn1c(N2CCC3(CC2)CC(F)(F)C[C@H]3N)nc(N)c(-c2cccc(Cl)c2Cl)c1=O [Example 137],7.66
17,C[C@@H]1OCC2(CCN(c3nc(N)c(-c4ccccc4)c(=O)n3C)CC2)[C@@H]1N [Example 138],7.62
18,C[C@@H]1OCC2(CCN(c3nc(N)c(-c4ccc(OC5CC5)cc4)c(=O)n3C)CC2)[C@@H]1N [Example 139],7.60
19,C[C@H]1C[C@@H](N)C2(CCN(c3nc(N)c(-c4ccccc4)c(=O)n3C)CC2)C1 [Example 140],7.60
20,C[C@@H]1OCC2(CCN(c3nc(N)c(-c4ccc(Cl)c(F)c4)c(=O)n3C)CC2)[C@@H]1N [Example 141],7.59
21,C[C@@H]1OCC2(CCN(c3nc(N)c(-c4ccc(Oc5ccccc5)cc4)c(=O)n3C)CC2)[C@@H]1N [Example 142],7.57
22,C[C@@H]1OCC2(CCN(c3nc(N)c(-c4cccc(F)c4F)c(=O)n3C)CC2)[C@@H]1N [Example 143],7.55
23,CC[C@@H]1OCC2(CCN(c3nc(N)c(-c4ccccc4)c(=O)n3C)CC2)[C@@H]1N [Example 144],7.47
24,C[C@@H]1OCC2(CCN(c3nc(N)c(-c4ccc(OC(F)F)cc4)c(=O)n3C)CC2)[C@@H]1N [Example 145],7.47
25,C[C@@H]1OCC2(CCN(c3nc(N)c(-c4ccc(F)cc4)c(=O)n3C)CC2)[C@@H]1N [Example 146],7.42

row,Structure (SMILES),pIC50
1,C[C@@H]1OCC2(CCN(c3nc(N)c(-c4ccc(OCC5CC5)cc4)c(=O)n3C)CC2)[C@@H]1N [Example 147],7.41
2,Cn1c(N2CCC3(CC2)C[C@@H](C(F)(F)F)C[C@H]3N)nc(N)c(-c2cccc(Cl)c2Cl)c1=O [Example 148],7.37
3,C[C@@H]1OCC2(CCN(c3nc(N)c(-c4ccc(OCc5ccccc5)cc4)c(=O)n3C)CC2)[C@@H]1N [Example 149],7.37
4,Cn1c(N2CCC3(CC2)CC(F)(F)C[C@H]3N)nc(N)c(-c2ccccc2)c1=O [Example 150],7.36
5,C[C@@H]1OCC2(CCN(c3nc(N)c(-c4cccc(F)c4)c(=O)n3C)CC2)[C@@H]1N [Example 151],7.36
6,C[C@@H]1OCC2(CCN(c3nc(N)c(-c4ccccc4Cl)c(=O)n3C)CC2)[C@@H]1N [Example 152],7.35
7,C[C@@H]1OCC2(CCN(c3nc(N)c(-c4ccccc4F)c(=O)n3C)CC2)[C@@H]1N [Example 153],7.34
8,Cn1c(N2CCC3(CC2)C[C@H](F)C[C@H]3N)nc(N)c(-c2ccccc2)c1=O [Example 154],7.34
9,Cn1c(N2CCC3(CC2)C[C@H](F)C[C@H]3N)nc(N)c(-c2cccc(Cl)c2Cl)c1=O [Example 155],7.32
10,C[C@@H]1OCC2(CCN(c3nc(N)c(-c4ccc(F)cc4F)c(=O)n3C)CC2)[C@@H]1N [Example 156],7.32
11,COc1ccc(-c2c(N)nc(N3CCC4(CC3)CO[C@@H](C)[C@H]4N)n(C)c2=O)cc1F [Example 157],7.28
12,C[C@@H]1OCC2(CCN(c3nc(N)c(-c4ccc(F)c(Cl)c4)c(=O)n3C)CC2)[C@@H]1N [Example 158],7.28
13,COc1ccc(-c2c(N)nc(N3CCC4(CC3)CO[C@@H](C)[C@H]4N)n(C)c2=O)cc1 [Example 159],7.25
14,C[C@@H]1OCC2(CCN(c3nc(N)c(-c4ccc(C5CC5)cc4)c(=O)n3C)CC2)[C@@H]1N [Example 160],7.20
15,Cn1c(N2CCC3(CC2)C[C@@H](C(F)(F)F)C[C@H]3N)nc(N)c(-c2ccccc2)c1=O [Example 161],7.20
16,COc1ccc(-c2c(N)nc(N3CCC4(CC3)CO[C@@H](C)[C@H]4N)n(C)c2=O)cc1Cl [Example 162],7.18
17,C[C@@H]1OCC2(CCN(c3nc(N)c(-c4ccc(C5CCCCC5)cc4)c(=O)n3C)CC2)[C@@H]1N [Example 163],7.14
18,C[C@@H]1OCC2(CCN(c3nc(N)c(-c4cc(F)cc(F)c4)c(=O)n3C)CC2)[C@@H]1N [Example 164],7.12
19,C[C@@H]1CC2(CCN(c3nc(N)c(-c4ccccc4)c(=O)n3C)CC2)[C@H](N)C1(F)F [Example 165],7.11
20,C[C@@H]1OCC2(CCN(c3nc(N)c(-c4ccc(N(C)C)cc4)c(=O)n3C)CC2)[C@@H]1N [Example 166],7.06
21,C[C@@H]1CC2(CCN(c3nc(N)c(-c4cccc(Cl)c4Cl)c(=O)n3C)CC2)[C@H](N)C1(F)F [Example 167],7.05
22,C[C@@H]1OCC2(CCN(c3nc(N)c(-c4ccc(-c5ccccc5)cc4)c(=O)n3C)CC2)[C@@H]1N [Example 168],6.97
23,C[C@@H]1OCC2(CCN(c3nc(N)c(-c4ccc(OC(F)(F)F)cc4)c(=O)n3C)CC2)[C@@H]1N [Example 169],6.92
24,COCCOc1ccc(-c2c(N)nc(N3CCC4(CC3)CO[C@@H](C)[C@H]4N)n(C)c2=O)cc1 [Example 170],6.77
25,C[C@@H]1OCC2(CCN(c3nc(N)c(-c4cncc(Cl)c4)c(=O)n3C)CC2)[C@@H]1N [Example 171],6.76

# Reference: patent US10308660B2, “Compounds and compositions for inhibiting the activity of SHP2” (Novartis AG, priority 2015, dated 2019)
